Data reported in article PMC3049928 (Archives of biochemistry and biophysics, 2010).

Target: SULT1A1 (human phenol sulfotransferase, human sulfotransferase 1A1) (Homo sapiens, UniProt P50225)
Assay: pNPS assay of PAP sulfation, p-nitrophenol absorbance at […] nm
Type: biochemical

SULT1A1 (human phenol sulfotransferase, human sulfotransferase 1A1), sequence (P50225 whole entry): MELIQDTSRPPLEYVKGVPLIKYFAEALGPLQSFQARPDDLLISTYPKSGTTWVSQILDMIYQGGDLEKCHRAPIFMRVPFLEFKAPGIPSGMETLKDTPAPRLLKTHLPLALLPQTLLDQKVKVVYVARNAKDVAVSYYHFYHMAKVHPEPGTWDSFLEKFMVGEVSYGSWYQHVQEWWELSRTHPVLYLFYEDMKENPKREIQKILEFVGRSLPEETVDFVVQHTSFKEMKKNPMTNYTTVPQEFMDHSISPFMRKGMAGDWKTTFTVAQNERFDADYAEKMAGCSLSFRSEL

Oc1ccc2ccccc2c1 [2-naphthol]
Ki: 2600 ± 200 nM
